Measured values as given in US7687476B2, “Specific inhibitors of acute and chronic inflammation” (priority 2001, dated 2010).
Entries after “also recorded” stand apart in the source; their conditions may differ.

Key:
[1] = system: L-cells transfected with E-selectin; assay: static adhesion of neutrophils to L-cells transfected with E-selectin (myeloperoxidase readout); format: cell-based, human; conditions: for adhesion of neutrophils to E-selectin transfected L-cells: preincubation 45 min, adhesion 20 min at 37° C., static assay; for order of potency of lead compounds: proposed from the adhesion experiments
Protocol: L-cells permanently transfected with full-length E-selectin by electroporation. Human neutrophils were isolated from EDTA whole blood by density centrifugation. Purity and total number were determined by standard haematology instruments, L-cells were grown in 96-well microtiter plates.
L-cells and neutrophils were pre-incubated with respective substances for 45 min at 37° C. Neutrophils were then allowed to adhere to L-cells in the presence of different substances for 20 min at 37° C. Non-adherent cells were removed by repeated washings and the number of adherent cells determined by measuring myeloperoxidase content. Since binding of neutrophils to selectin is calcium dependent, EGTA (which chelates calcium) was used as a negative control.
L-cells and neutrophils were preincubated with decreasing concentrations of maltose, fucose, and thymidine (1 mM, 10 μM, 0.1 μM, and 1 nM) for 45 min at 37° C. Neutrophils were then allowed to adhere to L-cells in the presence of respective substances for 20 min at 37° C. Non-adherent cells were removed by repeated washings and the number of adherent cells determined by measuring myeloperoxidase content.
L-cells were grown in 96-well microtiter plates. L-cells and neutrophils were preincubated with decreasing concentrations of EGTA (10 mM, 1 mM, 0.1 mM, 10 μM) for 45 min at 37° C. Neutrophils were then allowed to adhere to L-cells in the presence of EGTA for 20 min at 37° C. Non-adherent cells were removed by repeated washings and the number of adherent cells was determined by measuring myeloperoxidase content.

myeloperoxidase = biological target: T1, myeloperoxidase (Homo sapiens, UniProt P05164); assay: effect on neutrophil myeloperoxidase activity; format: cell-based; conditions: neutrophils, 100 μM to 10 nM, 2 hours at 37° C.
T1 construct: endogenous in cells; host or cells: human neutrophils isolated from EDTA whole blood
Protocol: Since the number of adherent neutrophils are calculated by measuring neutrophil myeloperoxidase activity, it could be argued that these substances could have a direct effect on myeloperoxidase activity and thus create a methodological artifact. Neutrophils were incubated with different concentrations of uridine, isomaltitol, and 4-thiouridine (100 μM, 10 μM, 1 μM, 100 nM, 10 nM) for 2 hours at 37° C.

TNF stimulated HUVEC = assay: neutrophil adhesion to TNF stimulated HUVEC; format: cell-based, human; conditions: for adhesion of neutrophils to TNF stimulated / activated HUVEC (in words) / inhibition of adhesion of neutrophils to TNF stimulated HUVEC: HUVEC stimulated with TNF 4 h; for inhibition of adhesion of neutrophils to TNF stimulated HUVEC: neutrophils preincubated 30 min at 37° C.
Protocol: To further extend the finding from L-cells the binding of neutrophils to TNF activated endothelium (HUVEC) was studied.
Endothelial cells were grown in 96-well microtiter plates to confluence. They were stimulated with TNF for 4 h at 37° C. Isolated neutrophils were incubated for 30 min at 37° C. with respective substances. The endothelial cells were washed after 4 h and 2×10^5 neutrophils were added to each well and the cells were allowed to adhere in the presence of the respective substances.

E-selectin = assay: cell-ELISA of surface expression of E-selectin on stimulated endothelial cells; format: cell-based, human; conditions: simultaneous incubation of endothelium with different concentrations, 4 h at 37° C.
Protocol: The substances mentioned above should block the interaction of E-selectin with it's ligand and should not have any effect on cytokine induced up-regulation of adhesion molecules. A cell-ELISA was performed to assess the surface expression of adhesion molecules. Endothelial cells were grown in microtiter plates, stimulated with TNF or IL-1 with or without respective substances for 4 h at 37° C. After stimulation the cells were washed and fixed with formaldehyde. A cell-ELISA was performed in analogy to regular ELISA using primary and secondary antibodies.

[2] = system: Colo 201 cells / L-cells transfected with E-selectin; assay: adhesion of colon cancer cells Colo 201 to L-cells transfected with E-selectin; format: cell-based; conditions: E-selectin transfected L-cells (text of b26 says HUVEC)
Protocol: Although protein ligands have been characterised for the selectins, they recognise a number of carbohydrate and non-carbohydrate ligands. The hypothesis is that these compounds should block E-selectin-SLe^x interaction. To confirm this it was also tested if these substances can block adhesion of Colo 201 cells to L-cells.

T1 sequence (P05164 279-745 limits assumed): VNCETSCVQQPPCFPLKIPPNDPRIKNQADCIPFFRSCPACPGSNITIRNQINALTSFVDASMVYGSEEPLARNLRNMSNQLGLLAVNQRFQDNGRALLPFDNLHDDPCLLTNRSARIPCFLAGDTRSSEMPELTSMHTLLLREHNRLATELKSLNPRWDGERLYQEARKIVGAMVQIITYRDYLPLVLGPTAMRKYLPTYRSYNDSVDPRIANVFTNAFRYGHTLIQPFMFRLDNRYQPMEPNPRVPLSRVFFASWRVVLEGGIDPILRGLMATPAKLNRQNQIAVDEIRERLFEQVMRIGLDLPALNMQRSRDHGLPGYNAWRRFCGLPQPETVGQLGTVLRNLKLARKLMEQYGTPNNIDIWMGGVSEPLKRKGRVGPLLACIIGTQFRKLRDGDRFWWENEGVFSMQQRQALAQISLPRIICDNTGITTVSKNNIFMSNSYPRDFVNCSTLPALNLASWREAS
T1 sequence (P05164 165-273 limits assumed): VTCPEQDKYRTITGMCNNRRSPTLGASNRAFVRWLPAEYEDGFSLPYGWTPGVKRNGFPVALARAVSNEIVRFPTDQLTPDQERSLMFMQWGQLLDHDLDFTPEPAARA

| Compound | adhesion of neutrophils to E-selectin transfected L-cells [1] | myeloperoxidase activity (myeloperoxidase) | adhesion of neutrophils to TNF stimulated / activated HUVEC (in words) (TNF stimulated HUVEC) | inhibition of adhesion of neutrophils to TNF stimulated HUVEC (TNF stimulated HUVEC) | concentration level at which the maximal effect on neutrophil adhesion to HUVEC occurs (TNF stimulated HUVEC; TNF stimulated HUVEC) | order of potency of lead compounds [1] | TNF induced up-regulation of E-selectin (E-selectin) | adhesion of Colo 201 cells [2] |
| --- | --- | --- | --- | --- | --- | --- | --- | --- |
| OC[C@H]1O[C@H](O[C@H]2[C@H](O)[C@@H](O)C(O)O[C@@H]2CO)[C@H](O)[C@@H](O)[C@@H]1O (mixture of isomers) [Maltose, maltose, reference compound] | did not affect the adhesion of neutrophils | – | – | – | – | – | – | – |
| O=c1[nH]c(=S)ccn1[C@@H]1O[C@H](CO)[C@@H](O)[C@H]1O [4-thiouridine] | could block adhesion of neutrophils | do not affect myeloperoxidase activity | dose dependent inhibition | 60% | micromolar levels | 4-thiouridine>isomaltitol>uridine | did not affect TNF induced up-regulation of E-selectin | – |
| O=C(O)CN(CCOCCOCCN(CC(=O)O)CC(=O)O)CC(=O)O [EGTA, reference compound] | consistently blocks adhesion of neutrophils; also recorded: dose dependent inhibition of neutrophils adhesion to L-cells | – | blocked adhesion of neutrophils; also recorded: dose dependent inhibition of neutrophils adhesion to activated HUVEC | – | – | – | – | blocked adhesion of Colo 201 cells |
| C[C@H](O)[C@@H](O)[C@@H](O)[C@H](O)C=O [fucose, reference compound] | did not affect the adhesion of neutrophils | – | – | – | – | – | – | – |
| OC[C@H](O)[C@@H](O)[C@H](O)[C@H](O)CO[C@H]1O[C@H](CO)[C@@H](O)[C@H](O)[C@H]1O [isomaltitol] | could block adhesion of neutrophils | do not affect myeloperoxidase activity | – | roughly 30% | – | 4-thiouridine>isomaltitol>uridine | – | – |
| Cc1cn([C@H]2C[C@H](O)[C@@H](CO)O2)c(=O)[nH]c1=O [thymidine, reference compound] | did not affect the adhesion of neutrophils | – | – | – | – | – | – | – |
| O=c1ccn([C@@H]2O[C@H](CO)[C@@H](O)[C@H]2O)c(=O)[nH]1 [uridine] | could block adhesion of neutrophils | do not affect myeloperoxidase activity | – | – | – | 4-thiouridine>isomaltitol>uridine | – | – |
